Reference: patent US6706663B2, “Herbicidal 3-heterocyclic substituted benzisothiazole and benzisoxazole compounds” (Wyeth, priority 2000, dated 2004)

Experiments:
ZEAMX (Corn, Field) = assay: Postemergence herbicidal evaluation; format: in vivo, Zea mays, L.; details: postemergence
Outline: (§1)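 Visual 0–9 injury scores versus control plants, covering stand, vigour, malformation, size, chlorosis and general appearance, taken four to five weeks post-spray and averaged over replicate tests. Plants were sprayed at roughly two weeks old and held on greenhouse benches.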

[1] = system: GLXMAW (Soybean, Williams); assay: Postemergence herbicidal evaluation; format: in vivo, Glycine max, (L.) Merr. cv Williams; details: postemergence
Outline: as §1

[2] = system: IPOHE (Ipomoea hederacea); assay: Postemergence herbicidal evaluation; format: in vivo, (L.) Jacq.; details: postemergence
Outline: as §1

ORYSAT (Rice, Tebonnet) [3] = assay: Preemergence herbicidal evaluation; format: in vivo, Oryza sativa, (L.) Tebonnet; details: rated 4-5 weeks after treatment
[4] = system: TRZAWR (Wheat, Winter, cv Riband); assay: Preemergence herbicidal evaluation; format: in vivo, Triticum aestivum; details: rated 4-5 weeks after treatment
Outline: (§2)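 Visual 0-9 rating versus untreated control, taken four to five weeks post-treatment, scoring stand, vigor, malformation, size, chlorosis and overall appearance. Compound applied as aqueous acetone spray to freshly seeded soil cups, then kept under standard greenhouse care.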

GALAP (Galium aparine) [5] = assay: Postemergence herbicidal evaluation; format: in vivo; details: postemergence
Outline: as §1

[6] = system: AMBEL (Ambrosia artemisifolia); assay: Postemergence herbicidal evaluation; format: in vivo, L.; details: postemergence
Outline: as §1

[7] = system: CASOB (Cassia obtusifolia); assay: Postemergence herbicidal evaluation; format: in vivo, L.; details: postemergence
Outline: as §1

[8] = system: CHEAL (Chenopodium album); assay: Postemergence herbicidal evaluation; format: in vivo, L.; details: postemergence
Outline: as §1

ORYSAT (Rice, Tebonnet) [9] = assay: Postemergence herbicidal evaluation; format: in vivo, Oryza sativa, (L.) Tebonnet; details: postemergence
Outline: as §1

GALAP (Galium aparine) [10] = assay: Preemergence herbicidal evaluation; format: in vivo; details: rated 4-5 weeks after treatment
Outline: as §2

[11] = system: ECHCG (Echinochloa crus-galli); assay: Preemergence herbicidal evaluation; format: in vivo, (L.) Beau; details: rated 4-5 weeks after treatment
Outline: as §2

SETVI (Setaria viridis) = assay: Preemergence herbicidal evaluation; format: in vivo, (L.) Beau; details: rated 4-5 weeks after treatment
Outline: as §2

[12] = system: ABUTH (Abutilon theophrasti); assay: Postemergence herbicidal evaluation; format: in vivo, Medic.; details: postemergence
Outline: as §1

Cc1cnn(-c2nsc3ccc(-n4c(=O)cc(C(F)(F)F)n(C)c4=O)cc23)c1 [Compound 59, 1-methyl-3-[3-(4-methylpyrazol-1-yl)-1,2-benzisothiazol-5-yl]-6-(trifluoromethyl)uracil]
ZEAMX herbicidal rating (ZEAMX (Corn, Field); rate 0.0320 kg/ha): 5.5 | ZEAMX herbicidal rating (ZEAMX (Corn, Field); rate 0.0620 kg/ha): 6.5 | ZEAMX herbicidal rating (ZEAMX (Corn, Field); rate 0.1250 kg/ha): 7.0 | GLXMAW herbicidal rating ([1]; rate 0.0320 kg/ha): 7.5 | GLXMAW herbicidal rating ([1]; rate 0.0620 kg/ha): 7.5 | GLXMAW herbicidal rating ([1]; rate 0.1250 kg/ha): 8.0 | IPOHE herbicidal rating ([2]; rate 0.0320 kg/ha): 8.0 | IPOHE herbicidal rating ([2]; rate 0.0620 kg/ha): 8.0 | IPOHE herbicidal rating ([2]; rate 0.1250 kg/ha): 9.0 | Preemergence herbicidal rating ORYSAT (ORYSAT (Rice, Tebonnet) [3]; Rate 0.0620 kg/ha): 1.0 | Preemergence herbicidal rating ORYSAT (ORYSAT (Rice, Tebonnet) [3]; Rate 0.1250 kg/ha): 2.0 | Preemergence herbicidal rating ORYSAT (ORYSAT (Rice, Tebonnet) [3]; Rate 0.2500 kg/ha): 2.0 | Preemergence herbicidal rating TRZAWR ([4]; Rate 0.0620 kg/ha): 1.0 | Preemergence herbicidal rating TRZAWR ([4]; Rate 0.1250 kg/ha): 2.0 | Preemergence herbicidal rating TRZAWR ([4]; Rate 0.2500 kg/ha): 2.0 | GALAP herbicidal rating (GALAP (Galium aparine) [5]; rate 0.0320 kg/ha): 0.0 | GALAP herbicidal rating (GALAP (Galium aparine) [5]; rate 0.0620 kg/ha): 3.0 | GALAP herbicidal rating (GALAP (Galium aparine) [5]; rate 0.1250 kg/ha): 3.0 | AMBEL herbicidal rating ([6]; rate 0.0320 kg/ha): 9.0 | AMBEL herbicidal rating ([6]; rate 0.0620 kg/ha): 9.0 | AMBEL herbicidal rating ([6]; rate 0.1250 kg/ha): 9.0 | CASOB herbicidal rating ([7]; rate 0.0320 kg/ha): 0.0 | CASOB herbicidal rating ([7]; rate 0.0620 kg/ha): 3.0 | CASOB herbicidal rating ([7]; rate 0.1250 kg/ha): 3.0 | CHEAL herbicidal rating ([8]; rate 0.0320 kg/ha): 8.0 | CHEAL herbicidal rating ([8]; rate 0.0620 kg/ha): 9.0 | CHEAL herbicidal rating ([8]; rate 0.1250 kg/ha): 9.0 | ORYSAT herbicidal rating (ORYSAT (Rice, Tebonnet) [9]; rate 0.0320 kg/ha): 2.0 | ORYSAT herbicidal rating (ORYSAT (Rice, Tebonnet) [9]; rate 0.0620 kg/ha): 2.5 | ORYSAT herbicidal rating (ORYSAT (Rice, Tebonnet) [9]; rate 0.1250 kg/ha): 2.5 | Preemergence herbicidal rating GALAP (GALAP (Galium aparine) [10]; Rate 0.0620 kg/ha): 5.0 | Preemergence herbicidal rating GALAP (GALAP (Galium aparine) [10]; Rate 0.1250 kg/ha): 5.0 | Preemergence herbicidal rating GALAP (GALAP (Galium aparine) [10]; Rate 0.2500 kg/ha): 4.0 | Preemergence herbicidal rating ECHCG ([11]; Rate 0.0620 kg/ha): 2.0 | Preemergence herbicidal rating ECHCG ([11]; Rate 0.1250 kg/ha): 3.0 | Preemergence herbicidal rating ECHCG ([11]; Rate 0.2500 kg/ha): 7.0 | Preemergence herbicidal rating SETVI (SETVI (Setaria viridis); Rate 0.0620 kg/ha): 6.0 | Preemergence herbicidal rating SETVI (SETVI (Setaria viridis); Rate 0.1250 kg/ha): 6.0 | Preemergence herbicidal rating SETVI (SETVI (Setaria viridis); Rate 0.2500 kg/ha): 9.0 | ABUTH herbicidal rating ([12]; rate 0.0320 kg/ha): 9.0 | ABUTH herbicidal rating ([12]; rate 0.0620 kg/ha): 9.0 | ABUTH herbicidal rating ([12]; rate 0.1250 kg/ha): 9.0

Cn1c(C(F)(F)F)cc(=O)n(-c2ccc3snc(-c4ccco4)c3c2)c1=O [Compound 60, 3-[3-(2-furyl)-1,2-benzisothiazol-5-yl]-1-methyl-6-(trifluoromethyl)uracil]
ZEAMX herbicidal rating (ZEAMX (Corn, Field); rate 0.0320 kg/ha): 5.5 | ZEAMX herbicidal rating (ZEAMX (Corn, Field); rate 0.0620 kg/ha): 6.0 | GLXMAW herbicidal rating ([1]; rate 0.0320 kg/ha): 5.0 | GLXMAW herbicidal rating ([1]; rate 0.0620 kg/ha): 7.0 | IPOHE herbicidal rating ([2]; rate 0.0320 kg/ha): 9.0 | IPOHE herbicidal rating ([2]; rate 0.0620 kg/ha): 9.0 | Preemergence herbicidal rating ORYSAT (ORYSAT (Rice, Tebonnet) [3]; Rate 0.0620 kg/ha): 1.0 | Preemergence herbicidal rating ORYSAT (ORYSAT (Rice, Tebonnet) [3]; Rate 0.1250 kg/ha): 4.0 | Preemergence herbicidal rating ORYSAT (ORYSAT (Rice, Tebonnet) [3]; Rate 0.2500 kg/ha): 6.0 | Preemergence herbicidal rating TRZAWR ([4]; Rate 0.0620 kg/ha): 1.0 | Preemergence herbicidal rating TRZAWR ([4]; Rate 0.1250 kg/ha): 4.0 | Preemergence herbicidal rating TRZAWR ([4]; Rate 0.2500 kg/ha): 6.0 | GALAP herbicidal rating (GALAP (Galium aparine) [5]; rate 0.0320 kg/ha): 7.0 | GALAP herbicidal rating (GALAP (Galium aparine) [5]; rate 0.0620 kg/ha): 9.0 | AMBEL herbicidal rating ([6]; rate 0.0320 kg/ha): 9.0 | AMBEL herbicidal rating ([6]; rate 0.0620 kg/ha): 9.0 | CASOB herbicidal rating ([7]; rate 0.0320 kg/ha): 1.0 | CASOB herbicidal rating ([7]; rate 0.0620 kg/ha): 4.0 | CHEAL herbicidal rating ([8]; rate 0.0320 kg/ha): 6.0 | CHEAL herbicidal rating ([8]; rate 0.0620 kg/ha): 5.0 | ORYSAT herbicidal rating (ORYSAT (Rice, Tebonnet) [9]; rate 0.0320 kg/ha): 3.5 | ORYSAT herbicidal rating (ORYSAT (Rice, Tebonnet) [9]; rate 0.0620 kg/ha): 4.0 | Preemergence herbicidal rating GALAP (GALAP (Galium aparine) [10]; Rate 0.0620 kg/ha): 6.0 | Preemergence herbicidal rating GALAP (GALAP (Galium aparine) [10]; Rate 0.1250 kg/ha): 7.0 | Preemergence herbicidal rating GALAP (GALAP (Galium aparine) [10]; Rate 0.2500 kg/ha): 9.0 | Preemergence herbicidal rating ECHCG ([11]; Rate 0.0620 kg/ha): 1.0 | Preemergence herbicidal rating ECHCG ([11]; Rate 0.1250 kg/ha): 6.0 | Preemergence herbicidal rating ECHCG ([11]; Rate 0.2500 kg/ha): 7.0 | Preemergence herbicidal rating SETVI (SETVI (Setaria viridis); Rate 0.0620 kg/ha): 3.0 | Preemergence herbicidal rating SETVI (SETVI (Setaria viridis); Rate 0.1250 kg/ha): 7.0 | Preemergence herbicidal rating SETVI (SETVI (Setaria viridis); Rate 0.2500 kg/ha): 9.0 | ABUTH herbicidal rating ([12]; rate 0.0320 kg/ha): 9.0 | ABUTH herbicidal rating ([12]; rate 0.0620 kg/ha): 9.0
